Source: patent US20170298060A1, “PYRROLOPYRIDINE RETINOIC ACID RECEPTOR-RELATED ORPHAN RECEPTOR MODULATORS AND USES THEREOF” (INNOV17 LLC, priority 2016, published 2017)

Experiments:
IL-17A = experiment: Human TH17 cytokine inhibition as measured by ELISA (IL-17A); type: cell-based; conditions: 72 h; human CD4+ T cells under TH17-polarizing conditions, 3 days, supernatant ELISA, 0.1% DMSO
Protocol: (§1) Human TH17 Cytokine Inhibition as Measured by ELISA
(§2) Peripheral blood mononuclear cells (PBMCs) were sourced from freshly prepared leukocyte enriched plasma (buffy coat) from healthy donors (New York Blood Center). PBMCs were isolated by density gradient centrifugation using Ficoll-Paque™ PLUS (GE Healthcare). Human CD4+ T cells were seeded into 96-well plates (5×10^4 cells/well) and activated with plate-bound anti-human (h)-CD3 antibody and soluble h-aCD28 (both at 1 ug/ml; eBioscience) and differentiated into TH17 cells with 20 ng/mL h-IL-6, 5 ng/mL h-TGF-β1, 10 ng/mL h-IL-23 (eBioscience) and 10 ng/mL IL-1β (Miltenyi Biotec) in serum-free TexMACS Medium (Miltenyi Biotec) supplemented with 1% Penicillin/Streptomycin (Lonza) for 3 days. CD4+ T cells propagated under TH17-polarizing conditions were cultured in the presence or absence of various concentrations of compounds with a final concentration of 0.1% DMSO. Supernatants were collected and stored at −20° C. until assayed for IL-17A and IL-17F levels by “Ready-Set-Go” ELISA kits (eBioscience) as per manufacturer's instructions. Endpoint absorbance was read at 450 nm using a microplate reader (Perkin Elmer).

IL-17F = experiment: Human TH17 cytokine inhibition as measured by ELISA (IL-17F); type: cell-based; conditions: 72 h; human CD4+ T cells under TH17-polarizing conditions, 3 days, supernatant ELISA, 0.1% DMSO
Protocol: as §1, §2

Row | Structure (SMILES) | IC50 (IL-17A) | IC50 (IL-17F)
1 | O=S(=O)(CCc1ccccc1)N1CCC(Cn2ccc3cc(-c4cn[nH]c4)ncc32)CC1 [Example 5, 1-((1-(phenethylsulfonyl)piperidin-4-yl)methyl)-5-(1H-pyrazol-4-yl)-1H-pyrrolo[2,3-c]pyridine] | < 10 µM | < 10 µM
2 | O=C(c1ccccc1)N1CCC(Cn2ccc3cc(-c4cn[nH]c4)cnc32)CC1 [Example 9, (4-((5-(1H-pyrazol-4-yl)-1H-pyrrolo[2,3-b]pyridin-1-yl)methyl)piperidin-1-yl)(phenyl)methanone] | < 10 µM | < 10 µM
3 | O=C(c1ccccc1F)N1CCC(Cn2ccc3cc(-c4cn[nH]c4)ncc32)CC1 [Example 4, (4-((5-(1H-pyrazol-4-yl)-1H-pyrrolo[2,3-c]pyridin-1-yl)methyl)piperidin-1-yl)(2-fluorophenyl)methanone] | < 10 µM | < 10 µM
4 | CC(C)CC(=O)N1CCC(Cn2ccc3cc(-c4cn[nH]c4)cnc32)CC1 [Example 11, 1-(4-((5-(1H-pyrazol-4-yl)-1H-pyrrolo[2,3-b]pyridin-1-yl)methyl)piperidin-1-yl)-3-methylbutan-1-one] | < 10 µM | < 10 µM
5 | CC(C)CS(=O)(=O)N1CCC(Cn2ccc3cc(-c4cn[nH]c4)cnc32)CC1 [Example 14, 1-((1-(isobutylsulfonyl)piperidin-4-yl)methyl)-5-(1H-pyrazol-4-yl)-1H-pyrrolo[2,3-b]pyridine] | < 10 µM | < 10 µM
6 | CC(C)CS(=O)(=O)N1CCC(Cn2ccc3cc(-c4cn[nH]c4)ncc32)CC1 [Example 6, 1-((1-(isobutylsulfonyl)piperidin-4-yl)methyl)-5-(1H-pyrazol-4-yl)-1H-pyrrolo[2,3-c]pyridine] | < 10 µM | < 10 µM
7 | O=S(=O)(c1ccccc1)N1CCC(Cn2ccc3cc(-c4cn[nH]c4)cnc32)CC1 [Example 15, 1-((1-(phenylsulfonyl)piperidin-4-yl)methyl)-5-(1H-pyrazol-4-yl)-1H-pyrrolo[2,3-b]pyridine] | < 10 µM | < 10 µM
8 | O=C(CCc1ccccc1)N1CCC(Cn2ccc3cc(-c4cn[nH]c4)cnc32)CC1 [Example 10, 1-(4-((5-(1H-pyrazol-4-yl)-1H-pyrrolo[2,3-b]pyridin-1-yl)methyl)piperidin-1-yl)-3-phenylpropan-1-one] | < 10 µM | < 10 µM
9 | O=S(=O)(c1ccccc1)N1CCC(Cn2ccc3cc(-c4cn[nH]c4)ncc32)CC1 [Example 7, 1-((1-(phenylsulfonyl)piperidin-4-yl)methyl)-5-(1H-pyrazol-4-yl)-1H-pyrrolo[2,3-c]pyridine] | < 10 µM | < 10 µM
10 | O=S(=O)(CCc1ccccc1)N1CCC(Cn2ccc3cc(-c4cn[nH]c4)cnc32)CC1 [Example 13, 1-((1-(phenethylsulfonyl)piperidin-4-yl)methyl)-5-(1H-pyrazol-4-yl)-1H-pyrrolo[2,3-b]pyridine] | < 10 µM | < 10 µM
11 | O=C(c1ccccc1)N1CCC(Cn2ccc3cc(-c4cn[nH]c4)ncc32)CC1 [Example 1, (4-((5-(1H-pyrazol-4-yl)-1H-pyrrolo[2,3-c]pyridin-1-yl)methyl)piperidin-1-yl)(phenyl)methanone] | < 10 µM | < 10 µM
12 | O=C(c1ccccc1F)N1CCC(Cn2ccc3cc(-c4cn[nH]c4)cnc32)CC1 [Example 12, (4-((5-(1H-pyrazol-4-yl)-1H-pyrrolo[2,3-b]pyridin-1-yl)methyl)piperidin-1-yl)(2-fluorophenyl)methanone] | < 10 µM | < 10 µM
13 | CC(C)CC(=O)N1CCC(Cn2ccc3cc(-c4cn[nH]c4)ncc32)CC1 [Example 3] | < 10 µM | < 10 µM
14 | O=S(=O)(c1ccccc1F)N1CCC(Cn2ccc3cc(-c4cn[nH]c4)cnc32)CC1 [Example 16, 1-((1-((2-fluorophenyl)sulfonyl)piperidin-4-yl)methyl)-5-(1H-pyrazol-4-yl)-1H-pyrrolo[2,3-b]pyridine] | < 10 µM | < 10 µM
15 | O=S(=O)(c1ccccc1F)N1CCC(Cn2ccc3cc(-c4cn[nH]c4)ncc32)CC1 [Example 8, 1-((1-((2-fluorophenyl)sulfonyl)piperidin-4-yl)methyl)-5-(1H-pyrazol-4-yl)-1H-pyrrolo[2,3-c]pyridine] | < 10 µM | < 10 µM
